Test results as given in publication PMC4113800 (Marine Drugs, 2014).

Legend:
BCRP [1] = biological target: T1, BCRP (Homo sapiens, UniProt Q9UNQ0); experiment: cell-based; conditions: for FAR (fluorescence arbitrary ratio), mitoxantrone fluorescence / % FTC (inhibition of mitoxantrone efflux normalized to 10 μM FTC): NCI-H460/MX20
T1 sequence (Q9UNQ0 1-655): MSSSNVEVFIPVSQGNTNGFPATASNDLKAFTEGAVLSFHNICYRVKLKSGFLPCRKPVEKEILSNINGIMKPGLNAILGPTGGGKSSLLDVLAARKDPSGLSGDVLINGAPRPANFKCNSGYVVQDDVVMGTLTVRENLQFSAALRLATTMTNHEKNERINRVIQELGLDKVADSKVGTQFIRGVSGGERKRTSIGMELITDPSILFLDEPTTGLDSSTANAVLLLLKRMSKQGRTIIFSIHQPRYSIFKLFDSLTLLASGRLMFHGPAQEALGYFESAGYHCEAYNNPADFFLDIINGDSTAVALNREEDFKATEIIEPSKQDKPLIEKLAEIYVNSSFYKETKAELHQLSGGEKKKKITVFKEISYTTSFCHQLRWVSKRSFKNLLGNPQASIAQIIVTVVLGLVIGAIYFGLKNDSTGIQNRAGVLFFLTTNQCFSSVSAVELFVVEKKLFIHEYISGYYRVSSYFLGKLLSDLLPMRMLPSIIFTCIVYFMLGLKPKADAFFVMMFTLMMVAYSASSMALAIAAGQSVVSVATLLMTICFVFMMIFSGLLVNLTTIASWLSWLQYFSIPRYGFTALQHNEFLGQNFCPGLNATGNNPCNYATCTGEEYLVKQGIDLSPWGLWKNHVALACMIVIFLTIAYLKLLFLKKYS
Description: (§1) Flow cytometry based assays were used to measure the ability of natural or synthetic compounds to inhibit P-gp, BCRP or MRP1 mediated accumulation and/or efflux of fluorescent reagents. […] For the calcein AM accumulation assays, cells were directly analyzed by flow cytometry.
(§2) Intracellular fluorescence intensity was measured on a BD FACSCanto™ II flow cytometer (Becton Dickinson, San Jose, CA, USA) and data were analyzed through FlowJo (Tree Star, Inc., Ashland, OR, USA). […] Mitoxantrone fluorescence was detected with a 638 nm […] laser and a 660/20 nm band-pass filter. At least 10,000 events were collected for all of the flow cytometry experiment. By increasing threshold value on forward scatter versus side scatter, debris was eliminated. Dead cells were excluded based on propidium iodide staining. Data are means ± SEM of at least three independent experiments performed in duplicate.

BCRP [2] = biological target: T1, BCRP; conditions: FTC 5.0 μM; [3H]-mitoxantrone 0.10 μM; NCI-H460/MX20
Description: In the efflux study cells were incubated with 0.1 μM [^3H]-mitoxantrone as the same in the accumulation study.

NCI-H460 cells = experiment: [3H]-mitoxantrone accumulation and efflux in parental NCI-H460 cells; assay type: cell-based, human; conditions: 11 at 10 or 30 μM, FTC 5.0 μM
Source text: […]. […] […]

[3] = MTT cytotoxicity assay, parental SW620 cells; assay type: cell-based; conditions: human
Description: (§3) The MTT assay was modified based on that previously described, using adherent cell lines SW620 and NCI-H460, and their P-gp over-expressing daughter cell line SW620 Ad300 and BCRP over-expressing daughter cell line NCI-H460/MX20, respectively. Briefly, cells were harvested with trypsin and added into 96-well microtitre assay plates at 2000 cells/well, followed by 18 h incubation at 37 °C with 5% CO2. […] Control wells were treated with 5% aqueous DMSO. […] 68 h later, 20 μL MTT (4 mg/mL in PBS) was dispensed into each well (final concentration 0.40 mg/mL), and plates were incubated for a further 4 h at 37 °C with 5% CO2. Finally medium was removed and precipitated formazan crystals were dissolved in 100% DMSO. The absorbance of each well was measured at 580 nm with a PowerWave XS Microplate Reader from Bio-Tek Instruments Inc. (Vinooski, VT, USA).
(§4) All experiments were performed in duplicate.

[4] = MTT cytotoxicity assay, P-gp over-expressing SW620 Ad300 cells; assay type: cell-based; conditions: human
Description: as §3, §4

P-gp = biological target: T2, P-gp (Homo sapiens, UniProt P08183); assay type: cell-based; conditions: compound or verapamil 20 μM vs PBS; calcein AM […]; SW620 Ad300; note: calcein AM 0.25 µM
T2 construct: The drug-resistant P-gp over-expressing daughter cell line SW620 Ad300 was established by stepwise selection; endogenous in cells; host or cells: SW620 Ad300 (human colon cancer, doxorubicin-selected)
Description: as §1, §2

SW620 Ad300 cells = experiment: Reversal of P-gp mediated doxorubicin resistance (MTT assay); assay type: cell-based, human
Description: as §3, §4

T2 sequence (P08183 whole entry): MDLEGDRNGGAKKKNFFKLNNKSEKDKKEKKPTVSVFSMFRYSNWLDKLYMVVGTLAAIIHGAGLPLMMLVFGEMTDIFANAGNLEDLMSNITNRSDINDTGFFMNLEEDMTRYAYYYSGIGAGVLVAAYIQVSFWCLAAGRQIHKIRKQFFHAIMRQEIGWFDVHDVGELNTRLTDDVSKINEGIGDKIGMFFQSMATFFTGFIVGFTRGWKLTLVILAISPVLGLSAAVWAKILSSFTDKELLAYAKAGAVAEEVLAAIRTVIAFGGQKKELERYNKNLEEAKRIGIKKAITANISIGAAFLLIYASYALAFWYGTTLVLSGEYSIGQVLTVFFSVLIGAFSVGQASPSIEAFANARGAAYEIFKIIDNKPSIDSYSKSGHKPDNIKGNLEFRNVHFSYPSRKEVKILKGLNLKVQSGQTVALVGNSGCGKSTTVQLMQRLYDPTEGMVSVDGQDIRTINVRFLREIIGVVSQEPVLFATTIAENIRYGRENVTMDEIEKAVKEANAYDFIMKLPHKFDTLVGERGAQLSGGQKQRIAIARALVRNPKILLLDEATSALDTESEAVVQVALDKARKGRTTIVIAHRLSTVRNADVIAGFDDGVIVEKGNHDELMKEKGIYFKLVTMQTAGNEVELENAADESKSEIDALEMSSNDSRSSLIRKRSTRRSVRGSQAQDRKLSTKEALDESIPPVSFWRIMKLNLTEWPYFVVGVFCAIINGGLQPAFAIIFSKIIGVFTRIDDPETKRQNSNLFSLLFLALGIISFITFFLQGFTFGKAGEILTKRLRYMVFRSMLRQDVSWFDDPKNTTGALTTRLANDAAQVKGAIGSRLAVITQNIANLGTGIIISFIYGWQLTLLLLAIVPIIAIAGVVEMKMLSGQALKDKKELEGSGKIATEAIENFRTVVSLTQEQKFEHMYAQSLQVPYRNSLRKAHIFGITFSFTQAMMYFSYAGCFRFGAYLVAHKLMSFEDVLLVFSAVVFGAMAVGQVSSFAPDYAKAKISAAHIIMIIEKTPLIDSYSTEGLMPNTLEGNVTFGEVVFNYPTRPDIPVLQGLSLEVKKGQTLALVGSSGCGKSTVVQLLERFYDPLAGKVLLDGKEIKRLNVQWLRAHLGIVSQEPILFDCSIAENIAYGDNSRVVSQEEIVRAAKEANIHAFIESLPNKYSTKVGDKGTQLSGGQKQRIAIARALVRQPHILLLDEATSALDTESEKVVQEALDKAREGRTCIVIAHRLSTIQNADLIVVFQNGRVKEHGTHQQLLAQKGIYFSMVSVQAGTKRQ

COC(=O)c1c(Br)c(Br)c(Br)n1CC(=O)c1ccc(OC)cc1 [Compound 16]
FAR (fluorescence arbitrary ratio), mitoxantrone fluorescence (BCRP [1]; compound 20 μM vs PBS): 1.20 fold | % FTC (inhibition of mitoxantrone efflux normalized to 10 μM FTC) (BCRP [1]; compound 20 μM): 5.45 % FTC

COc1ccc2c3c([nH]c2c1)[C@H](C=C(C)C)N1C(=O)[C@@H]2CCCN2C(=O)[C@@H]1C3 [FTC, Fumitremorgin C, reference compound]
FAR (fluorescence arbitrary ratio), mitoxantrone fluorescence (BCRP [1]; FTC 10 μM (positive control) vs PBS): 3.17 fold | % FTC (inhibition of mitoxantrone efflux normalized to 10 μM FTC) (BCRP [1]; FTC 10 μM (positive control, set as 100%)): 100 % FTC | increase in [3H]-mitoxantrone accumulation (BCRP [2]): 2.2 fold | effect on intracellular [3H]-mitoxantrone levels, accumulation phase (NCI-H460 cells): neither 11 (10 or 30 μM) nor FTC (5.0 μM) significantly changed intracellular [^3H]-mitoxantrone levels | effect on intracellular [3H]-mitoxantrone levels, efflux phase (NCI-H460 cells): Neither 11 nor FTC had a significant effect

COC(=O)c1cc(Br)cn1CC(=O)c1ccc(OC)cc1 [Compound 14]
FAR (fluorescence arbitrary ratio), mitoxantrone fluorescence (BCRP [1]; compound 20 μM vs PBS): 1.03 fold | % FTC (inhibition of mitoxantrone efflux normalized to 10 μM FTC) (BCRP [1]; compound 20 μM): < 1.00 % FTC

COC(=O)c1[nH]cc(-c2ccc(O)cc2)c1-c1ccc(O)cc1 [Compound 12, lamellarin Q]
IC50 at 68 h [3]: > 30 µM | IC50 at 68 h [4]: > 30 µM | FAR (fluorescence arbitrary ratio), intracellular calcein fluorescence (P-gp): 0.54 fold | FAR (fluorescence arbitrary ratio), mitoxantrone fluorescence (BCRP [1]; compound 20 μM vs PBS): 1.41 fold | % FTC (inhibition of mitoxantrone efflux normalized to 10 μM FTC) (BCRP [1]; compound 20 μM): 18.6 % FTC

CCOC1(C(=O)OC)NC(=O)C(c2ccc(O)cc2)=C1c1ccc(O)cc1 (stereo not drawn) [Compound 2, ianthellidone B]
IC50 at 68 h [3]: > 30 µM | IC50 at 68 h [4]: > 30 µM | FAR (fluorescence arbitrary ratio), intracellular calcein fluorescence (P-gp): 0.52 fold | FAR (fluorescence arbitrary ratio), mitoxantrone fluorescence (BCRP [1]; compound 20 μM vs PBS): 1.07 fold | % FTC (inhibition of mitoxantrone efflux normalized to 10 μM FTC) (BCRP [1]; compound 20 μM): 3.13 % FTC

COc1cccc2c1C(=O)c1c(O)c3c(c(O)c1C2=O)C[C@@](O)(C(=O)CO)C[C@@H]3O[C@H]1C[C@H](N)[C@H](O)[C@H](C)O1 [doxorubicin, reference compound]
IC50 (SW620 Ad300 cells; Homo sapiens, doxorubicin alone): 4.44 ± 0.21 µM

COc1ccc(CCN(C)CCCC(C#N)(c2ccc(OC)c(OC)c2)C(C)C)cc1OC (stereo not drawn) [verapamil, reference compound]
DMF (dose-modifying factor), increase in sensitivity towards doxorubicin (SW620 Ad300 cells; verapamil […]): 8.8 fold

CCOCN1C(=O)C(c2ccc(O)cc2)=C(c2ccc(O)cc2)C1(O)C(=O)OC (stereo not drawn) [Compound 4, ianthellidone D]
IC50 at 68 h [3]: > 30 µM | IC50 at 68 h [4]: > 30 µM | FAR (fluorescence arbitrary ratio), intracellular calcein fluorescence (P-gp): 0.60 fold | FAR (fluorescence arbitrary ratio), mitoxantrone fluorescence (BCRP [1]; compound 20 μM vs PBS): 1.15 fold | % FTC (inhibition of mitoxantrone efflux normalized to 10 μM FTC) (BCRP [1]; compound 20 μM): 6.66 % FTC

COC(=O)c1cccn1CC(=O)c1ccc(OC)cc1 [Compound 13]
FAR (fluorescence arbitrary ratio), mitoxantrone fluorescence (BCRP [1]; compound 20 μM vs PBS): 1.00 fold | % FTC (inhibition of mitoxantrone efflux normalized to 10 μM FTC) (BCRP [1]; compound 20 μM): < 1.00 % FTC

COC(=O)c1ccc(Br)n1CC(=O)c1ccc(OC)cc1 [Compound 15]
FAR (fluorescence arbitrary ratio), mitoxantrone fluorescence (BCRP [1]; compound 20 μM vs PBS): 0.97 fold | % FTC (inhibition of mitoxantrone efflux normalized to 10 μM FTC) (BCRP [1]; compound 20 μM): < 1.00 % FTC

COC(=O)C1(OC)OC(=O)C(c2ccc(O)cc2)=C1c1ccc(O)cc1 (stereo not drawn) [Compound 8, ianthellidone H]
IC50 at 68 h [3]: > 30 µM | IC50 at 68 h [4]: > 30 µM | FAR (fluorescence arbitrary ratio), intracellular calcein fluorescence (P-gp): 0.60 fold | FAR (fluorescence arbitrary ratio), mitoxantrone fluorescence (BCRP [1]; compound 20 μM vs PBS): 1.13 fold | % FTC (inhibition of mitoxantrone efflux normalized to 10 μM FTC) (BCRP [1]; compound 20 μM): 6.06 % FTC

COC(=O)c1c(-c2ccc(O)cc2)c(-c2ccc(O)cc2)cn1CC(=O)c1ccc(OC)cc1 [Compound 11, lamellarin O]
IC50 at 68 h [3]: 22 µM | IC50 at 68 h [4]: 22.3 µM | DMF (dose-modifying factor), increase in sensitivity towards doxorubicin (SW620 Ad300 cells; lamellarin O (11) 5.0 μM): 1.5 fold | DMF (dose-modifying factor), increase in sensitivity towards doxorubicin (SW620 Ad300 cells; lamellarin O (11) 10 μM): 3.1 fold | DMF (dose-modifying factor), increase in sensitivity towards doxorubicin (SW620 Ad300 cells; lamellarin O (11) […] μM): 4.8 fold | effect on intracellular [3H]-mitoxantrone levels, accumulation phase (NCI-H460 cells): neither 11 (10 or 30 μM) nor FTC (5.0 μM) significantly changed intracellular [^3H]-mitoxantrone levels | effect on intracellular [3H]-mitoxantrone levels, efflux phase (NCI-H460 cells): Neither 11 nor FTC had a significant effect

COC(=O)C1(O)NC(=O)C(c2ccc(O)cc2)=C1c1ccc(O)cc1 (stereo not drawn) [Compound 1, ianthellidone A]
IC50 at 68 h [3]: > 30 µM | IC50 at 68 h [4]: > 30 µM | FAR (fluorescence arbitrary ratio), intracellular calcein fluorescence (P-gp): 0.63 fold | FAR (fluorescence arbitrary ratio), mitoxantrone fluorescence (BCRP [1]; compound 20 μM vs PBS): 0.97 fold | % FTC (inhibition of mitoxantrone efflux normalized to 10 μM FTC) (BCRP [1]; compound 20 μM): <1.00 % FTC

COC(=O)C1(O)C(c2ccc(O)cc2)=C(c2ccc(O)cc2)C(=O)N1CC(=O)c1ccc(OC)cc1 (stereo not drawn) [Compound 6, ianthellidone F]
IC50 at 68 h [3]: > 30 µM | IC50 at 68 h [4]: > 30 µM | FAR (fluorescence arbitrary ratio), intracellular calcein fluorescence (P-gp): 0.61 fold | FAR (fluorescence arbitrary ratio), mitoxantrone fluorescence (BCRP [1]; compound 20 μM vs PBS): 1.21 fold | % FTC (inhibition of mitoxantrone efflux normalized to 10 μM FTC) (BCRP [1]; compound 20 μM): 9.79 % FTC

COC(=O)c1c(-c2ccc(O)cc2)c(-c2ccc(O)cc2)cn1CC(O)c1ccc(O)cc1 (stereo not drawn) [Compound 10, lamellarin O2]
IC50 at 68 h [3]: > 30 µM | IC50 at 68 h [4]: > 30 µM | FAR (fluorescence arbitrary ratio), intracellular calcein fluorescence (P-gp): 0.60 fold | FAR (fluorescence arbitrary ratio), mitoxantrone fluorescence (BCRP [1]; compound 20 μM vs PBS): 1.11 fold | % FTC (inhibition of mitoxantrone efflux normalized to 10 μM FTC) (BCRP [1]; compound 20 μM): 5.13 % FTC

COCN1C(=O)C(c2ccc(O)cc2)=C(c2ccc(O)cc2)C1(O)C(=O)OC (stereo not drawn) [Compound 3, ianthellidone C]
IC50 at 68 h [3]: > 30 µM | IC50 at 68 h [4]: > 30 µM | FAR (fluorescence arbitrary ratio), intracellular calcein fluorescence (P-gp): 0.61 fold | FAR (fluorescence arbitrary ratio), mitoxantrone fluorescence (BCRP [1]; compound 20 μM vs PBS): 1.12 fold | % FTC (inhibition of mitoxantrone efflux normalized to 10 μM FTC) (BCRP [1]; compound 20 μM): 5.60 % FTC

COC(=O)c1c(-c2ccc(OC)cc2)c(-c2ccc(OC)cc2)cn1CC(=O)c1ccc(OC)cc1 [Compound 19, 4′,4″-dimethyl-lamellarin O]
IC50 (BCRP [1]): > 100 µM

COC(=O)c1c(-c2ccc(O)cc2)c(-c2ccc(O)cc2)cn1CC(=O)c1ccc(O)cc1 [Compound 9, lamellarin O1]
IC50 at 68 h [3]: > 30 µM | IC50 at 68 h [4]: > 30 µM | FAR (fluorescence arbitrary ratio), intracellular calcein fluorescence (P-gp): 0.61 fold | FAR (fluorescence arbitrary ratio), mitoxantrone fluorescence (BCRP [1]; compound 20 μM vs PBS): 1.23 fold | % FTC (inhibition of mitoxantrone efflux normalized to 10 μM FTC) (BCRP [1]; compound 20 μM): 10.6 % FTC

COC(=O)C1(O)OC(=O)C(c2ccc(O)cc2)=C1c1ccc(O)cc1 (stereo not drawn) [Compound 7, ianthellidone G]
IC50 at 68 h [3]: > 30 µM | IC50 at 68 h [4]: > 30 µM | FAR (fluorescence arbitrary ratio), intracellular calcein fluorescence (P-gp): 0.67 fold | FAR (fluorescence arbitrary ratio), mitoxantrone fluorescence (BCRP [1]; compound 20 μM vs PBS): 1.09 fold | % FTC (inhibition of mitoxantrone efflux normalized to 10 μM FTC) (BCRP [1]; compound 20 μM): 4.06 % FTC

CCOC(=O)CN1C(=O)C(c2ccc(O)cc2)=C(c2ccc(O)cc2)C1(O)C(=O)OC (stereo not drawn) [Compound 5, ianthellidone E]
IC50 at 68 h [3]: > 30 µM | IC50 at 68 h [4]: > 30 µM | FAR (fluorescence arbitrary ratio), intracellular calcein fluorescence (P-gp): 0.59 fold | FAR (fluorescence arbitrary ratio), mitoxantrone fluorescence (BCRP [1]; compound 20 μM vs PBS): 1.14 fold | % FTC (inhibition of mitoxantrone efflux normalized to 10 μM FTC) (BCRP [1]; compound 20 μM): 6.20 % FTC
